Test results taken from US20180051284A1, “INHIBITORS OF MIR-17-92 CLUSTER FOR ANTI-TUMOR ACTIVITY IN MULTIPLE MYELOMA AND OTHER MALIGNANCIES” (priority 2014, published 2018).
l = locked nucleic acid (LNA); d = 2'-deoxy (DNA)

Assays:
AMO1/abzb xenografts = experiment: In vivo tumor growth of Bortezomib-refractory AMO1/abzb xenografts (IVIS); set-up: species or system mice; conditions: I.P. Bortezomib 1 mg/kg; Bortezomib-refractory model
Description: Male CB-17 severe combined immunodeficient (SCID) mice (6- to 8-weeks old; Harlan Laboratories, Inc., Indianapolis) were housed and monitored in our Animal Research Facility. All experimental procedures and protocols had been approved by the Institutional Ethical Committee (Magna Graecia University) and conducted according to protocols approved by the National Directorate of Veterinary Services (Italy). In accordance with institutional guidelines, mice were sacrificed when tumors reached 2 cm in diameter or in the event of paralysis or major compromise, to prevent unnecessary suffering. Animal experimental procedures have been performed as in previous reports (Di Martino et al, CCR 2012; Di Martino el al. Oncotarget 2013, Di Martino et al PlosOne 2014). […] Mice were also inoculated with 5×10^6 luciferase gene-marked U266, AMO-1, AMO-1/abzb, treatments were performed intraperitoneally (i.p.), and tumor volume were measured by IVIS Lumina II.
In vivo anti-MM activity of LNA gapmer_06 was next evaluated in NOD/SCID mice bearing subcutaneous AMO1 xenografts. […] Tumors volume were measured using IVIS LUMINA II Imaging We next evaluate the in vivo activity in Bortezomib-refractory model of human MM. […] Tumors volume were measured using IVIS LUMINA II Imaging System.

[1] = test system: miR-17-92 primary transcript (pri-miRs) and mature miR-17-92 cluster members; experiment: q-RT-PCR of miR-17-92 member family and two pri-miRs after transfection of MM cells; format: cell-based, Human; conditions: 48 hours after transfection with 25 nM; NCI-H929 and RPMI-8226 cells; relative to RNase-free water
Experimental: 3×10^5 cells were transfected using Neon Transfection System (Invitrogen, Calif.,U.S.), (2 pulses at 1150, 30ms). The transfection efficiency evaluated by flow-cytometric analysis relative to a FAM dye—labeled anti-miR—negative control reached 85% to 90%.
Reverse transcription (RT) of both primary and mature miRNAs was performed using TaqMan® MicroRNA Assays, following a procedure for multiplexing the RT step (Life Technologies, Publication Part Number 4465407). Briefly, 500 ng of total RNA, prepared with the TRIzol® Reagent (Invitrogen), underwent reverse transcription by the Taq-Man® MicroRNA RT Kit. In this reaction, the RT primer pool was composed by the individual RT primers for each microRNA belonging to the miR-17-92 cluster and two RT primers to allow the reverse transcription of the miR-17-92 primary miRNA. Real-time PCR was performed using TaqMan® MicroRNA Assays together with the TaqMan® Universal PCR Master Mix on an ViiA7 System (Life Technologies). Both primary and mature microRNAs expressions were relatively quantified using the 2-ΔΔCt method (Applied Biosystems User Bulletin No. 2), and expressed as the relative quantity of target miRNA normalized to the RNU44 (assay ID 001094) housekeeping gene. Comparative real-time polymerase chain reaction (RT-PCR) was performed in triplicate, including no-template controls. Relative expression was calculated using the comparative cross threshold (Ct) method.
By the use of a custom q-RT-PCR plate specifically designed by us to detect all six mature miR-17-92 members and the primary transcript by two different assays (pri-mir-17/18a/19a and pri-mir-19b1/20a/92a1), we quantified in a panel of 11 MM cell lines the levels of the different miRNAs and pri-miRs.

Molecule | tumor growth (IVIS tumor volume) (AMO1/abzb xenografts) | downregulation of primary and mature miRNA sequences (q-RT-PCR) [1]
CC(C)C[C@H](NC(=O)[C@H](Cc1ccccc1)NC(=O)c1cnccn1)B(O)O [Bortezomib, reference compound] | no effect on tumor-growth | –
gapmer_15: LNA/DNA gapmer, SEQ ID 7 (16 mer): +A*+G*+C*A*C*T*C*A*A*C*A*T*C*+A*+G*+C (AGCACTCAACATCAGC; sugars from the 5' end l3 d10 l3, all phosphorothioate, methylation of C not given here) | – | strongest downregulation of primary transcripts and miR-17-92 mature members
